The target of one assay is T1, BRD4 BD1 (Homo sapiens, UniProt O60885).
T1 construct: made in house
The assay can be described thus: AlphaScreen binding assay, BRD4 Bromodomain 1. As for the experimental part:
(§1) The binding of Example compounds to BRD4 Bromodomain 1 and BRD4 Bromodomain 2 was assessed using 384-well AlphaScreen assay technology. His-epitope tagged BRD4 BD144-168 and BRD4 BD2333-460 were cloned, expressed, and purified to homogeneity. BRD4 BD1 and BRD4 BD2 binding and inhibition was assessed by monitoring the engagement of biotinylated Histone H4 (1-21) K5/8/12/16 tetra-acetylated peptide with the targets using the AlphaScreen technology (PerkinElmer). Specifically, in a 384-well black or white flat bottom plate, BRD4 BD1 (50 nM final) or BRD4 BD2 (100 nM final) was combined with peptide (50 nM final for BD1 or 100 nM final for BD2) in 50 mM HEPES (pH 7.3), 100 mM NaCl, 0.1% (w/v) BSA, and 0.01% (w/v) Triton X-100 either in the presence of DMSO (final 1.25% DMSO) or compound dilution series in DMSO. Alpha streptavidin donor beads and Nickel-chelate acceptor beads were added to a final concentration of 10 μg/ml each. After a minimum of 1 hour equilibration, plates were read on a BMG PHERAstar FS multi-label reader (BMG LabTech). The half maximal inhibitory concentration (IC50) values were calculated using IDBS Activity Base software with a four parameter logistic curve fit by the equation y=A+((B−A)/(1+((C/x)^D))), wherein A denotes the bottom plateau of the curve, B denotes the top plateau of the curve, C denotes the x value at the middle of the curve, D denotes the slope factor, x denotes the original known x values, and y denotes the original known y values. Data was fitted using the Levenburg Marquardt algorithm.
(In general: Alpha assays give light when donor and acceptor beads are brought close together.)

In the next assay the target is T2, BRD4 BD2 (Homo sapiens, UniProt O60885).
T2 construct: made in house
The assay can be described thus: AlphaScreen binding assay, BRD4 Bromodomain 2. As for the experimental part: as §1

Structures are written as SMILES. Some results are limits rather than exact numbers.

Consider `CC(=O)N1c2ccccc2N(S(=O)(=O)c2ccc(C#N)cc2)C[C@@H]1C` [Example I-938], for which the IC50 on BRD4 BD1 is over 10 µM; on BRD4 BD2, over 0.5 µM.
With `CC(=O)N1c2ccccc2N(C(=O)[C@H]2COc3ccccc3O2)C[C@@H]1C` [Example I-737], the concentration for half-maximal inhibition (IC50) was over 10 µM on BRD4 BD1 and over 0.5 µM on BRD4 BD2.
The matching figures for `COC(=O)N1c2ccc(-c3cnn(CC#N)c3)cc2N(C(=O)OC(C)C)C[C@@H]1C` [Example I-639]: 1 to 10 µM and over 0.5 µM.
Take `CC(=O)N1c2ccc(-c3ccc4nncn4n3)cc2N(C(=O)c2ccco2)C[C@@H]1C` [Example I-396]: the concentration for half-maximal inhibition (IC50) at BRD4 BD1 lay within 1 to 10 µM; at BRD4 BD2, 0.05 to 0.5 µM.
With `CC(=O)N1c2ccccc2N(C(=O)c2cc3ccncc3s2)C[C@@H]1C` [Example I-775], the 50% inhibitory concentration (IC50) is over 10 µM on BRD4 BD1 and over 0.5 µM at BRD4 BD2.
As for `CC(=O)N1c2ccc(-c3ccc(-c4ccccc4)cc3)cc2N(C(=O)COc2ccccc2)C[C@@H]1C` [Example I-797], the half-inhibitory concentration (IC50) was over 10 µM at BRD4 BD1 and over 0.5 µM on BRD4 BD2.
As for `COc1ccc(CC(=O)N2C[C@H](C)N(C(C)=O)c3ccccc32)cc1` [Example I-698], the IC50 was over 10 µM at BRD4 BD1 and over 0.5 µM at BRD4 BD2.
Take `COC(=O)N1c2ccc(-c3ccc(CS(N)(=O)=O)cc3)cc2N(C(=O)C2CC2)C[C@@H]1C` [Example I-460]: the half-maximal inhibitory concentration (IC50) lay in the range of 1 to 10 µM on BRD4 BD1 and 0.05 to 0.5 µM at BRD4 BD2.
Consider `CC(=O)N1c2ccc(-c3ccc4[nH]ccc4n3)cc2N(C(=O)c2ccco2)CC1C` (stereo not shown) [Example I-397], for which the IC50 on BRD4 BD1 lay in the range of 1 to 10 µM; on BRD4 BD2, 0.05 to 0.5 µM.
With `CC(=O)N1c2ccc(-c3ccc(S(C)(=O)=O)cc3)cc2N(c2ncccn2)C[C@@H]1C` [Example I-45, (S)-1-(2-methyl-6-(4-(methylsulfonyl)phenyl)-4-(pyrimidin-2-yl)-3,4-dihydroquinoxalin-1(2H)-yl)ethanone], the 50% inhibitory concentration (IC50) on BRD4 BD1 is 1 to 10 µM; on BRD4 BD2, over 0.5 µM.
Take `CC(=O)N1c2ccc(N(C)c3ccccc3)cc2N(C(=O)c2ccco2)C[C@@H]1C` [Example I-992]: the half-inhibitory concentration (IC50) was 1 to 10 µM at BRD4 BD1 and over 0.5 µM at BRD4 BD2.
Consider `CC(C)OC(=O)N1C[C@H](C)N(C(=O)C2CC2)c2ccc(-c3ccc(C(=O)NCCN)cc3)cc21` [Example I-481], for which the half-inhibitory concentration (IC50) was 0.1 to 1 µM at BRD4 BD1 and over 0.5 µM on BRD4 BD2.
Regarding `COC(=O)N1c2ccc(-c3cnn(CCS(C)(=O)=O)c3)cc2N(C(=O)Oc2ccccn2)C[C@@H]1C` [Example I-1319], the IC50 at BRD4 BD1 fell in the range of 1 to 10 µM; at BRD4 BD2, 0.05 to 0.5 µM.
`CC(=O)N1c2ccc(-c3ccc(S(C)(=O)=O)cc3)nc2N(C(=O)c2ccco2)C[C@@H]1C` [Example I-300]: the results for the 50% inhibitory concentration (IC50) on BRD4 BD1 and at BRD4 BD2 were 1 to 10 µM and 0.05 to 0.5 µM, respectively.
The matching figures for `C[C@H]1CN(C(=O)C2CC2)c2cc(-c3ccc(CS(N)(=O)=O)cc3)ccc2N1C(=O)C1CC1` [Example I-446]: 0.1 to 1 µM and 0.05 to 0.5 µM.
As to `CC(=O)N1c2ccccc2N(S(=O)(=O)c2ccccc2Cl)C[C@@H]1C` [Example I-942], the IC50 on BRD4 BD1 was over 10 µM; at BRD4 BD2, over 0.5 µM.
For the compound `COC(=O)N1c2ccc(-c3ccc(N4CCCS4(=O)=O)cc3)cc2N(C(=O)OC(C)C)C[C@@H]1C` [Example I-484], the IC50 was 0.1 to 1 µM at BRD4 BD1 and over 0.5 µM at BRD4 BD2.
The corresponding values for `COC(=O)N1c2ccc(-c3cnn(CCN(C)C)c3)cc2N(C(=O)OC(C)C)C[C@@H]1C` [Example I-645] are 1 to 10 µM and over 0.5 µM.
The matching figures for `CC(=O)N1c2ccccc2N(S(=O)(=O)c2cccnc2)C[C@@H]1C` [Example I-934]: over 10 µM and over 0.5 µM.
The matching figures for `CC(=O)N1c2ccc(-c3cnn(C4COC4)c3)cc2N(C(=O)OC2CC3(COC3)C2)C[C@@H]1C` [Example I-70, 2-oxaspiro[3.3]heptan-6-yl (3S)-4-acetyl-3-methyl-7-[1-(oxetan-3-yl)-1H-pyrazol-4-yl]-1,2,3,4-tetrahydroquinoxaline-1-carboxylate]: 1 to 10 µM and over 0.5 µM.

One may read the IC50 as the concentration that gives 50% inhibition.
